The values below come from patent US7138525B2, “N-substituted-2-oxodihydropyridine derivatives” (Banyu Pharmaceutical Co., Ltd., priority 2002, dated 2006).

Where two headings read alike, the source gives them in different places.

Data set [1] has as its target T1, human NPY Y5 receptor (Homo sapiens, UniProt Q15761).
T1 construct: expressed in transfected cells; host or cells: COS-7, CHO and LM(tk-) cells (membrane preparation)
T1 sequence (Q15761 1-445): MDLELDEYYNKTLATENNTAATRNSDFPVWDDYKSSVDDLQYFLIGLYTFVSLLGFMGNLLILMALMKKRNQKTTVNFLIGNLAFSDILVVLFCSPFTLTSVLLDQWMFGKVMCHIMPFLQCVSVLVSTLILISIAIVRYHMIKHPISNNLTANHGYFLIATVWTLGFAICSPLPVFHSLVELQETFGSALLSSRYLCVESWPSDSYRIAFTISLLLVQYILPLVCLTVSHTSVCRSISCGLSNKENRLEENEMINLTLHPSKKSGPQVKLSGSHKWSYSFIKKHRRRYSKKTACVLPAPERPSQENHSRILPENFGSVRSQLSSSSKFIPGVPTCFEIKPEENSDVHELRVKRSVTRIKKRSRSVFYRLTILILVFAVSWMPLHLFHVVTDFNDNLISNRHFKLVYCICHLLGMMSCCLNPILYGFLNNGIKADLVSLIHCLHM
Nature of the data set: NPY binding inhibition test ([125I]peptideYY binding to membranes of NPY Y5 receptor expressing cells). The following applies: 25° C., 2 hours, membrane of NPY Y5 receptor expressing cells, read-out: IC50 against specific peptideYY binding. From the text: cDNA sequence encoding human NPY Y5 receptor (c.f. International patent publication number WO96/16542) was cloned into expression vectors pcDNA3, pRc/RSV (made by Invitrogen Inc.) and pCI-neo (made by Promega Inc.). The expression vectors thus obtained were transfected to host cells COS-7, CHO and LM(tk−) (American Type Culture Collection) by cationic lipid method (Proceedings of the National Academy of Sciences of the United States of America, vol. 84: p. 7413(1987)) to give NPY Y5 receptor expression cells.
A membrane sample prepared from the cells which expressed NPY Y5 receptor was incubated together with a test compound and [^125I]peptideYY (made by NEN) (20,000 cpm) in an assay buffer (25 mM Tris buffer, pH7.4, containing 10 mM magnesium chloride, 1 mM phenylmethylsulfonyl fluoride, 0.1% bacitracin and 0.5% bovine serum albumin) at 25° C. for 2 hours, then filtered through a glass filter GF/C and washed with 5 mM Tris buffer (pH7.4) containing 0.3% BSA. The radio activity of the cake on the glass filter was measured. Non-specific binding was measured in the presence of 1 μM peptide YY, and a 50% Inhibitory Concentration (IC50) of the test compound against specific peptideYY binding was determined (Endocrinology, vol. 131: p. 2090(1992)).

Data set [2] in a line: Brain/cerebrospinal fluid transport test. Conditions: male SD rats, 2 hours after oral administration (10 mg/kg); for concentration at 2 h: rat. In kind it is in vivo. The method, then: A test compound was orally or intravenously administered to male SD rats (7–10 weeks old, 200–400 g), and whole blood was collected from the abdominal aorta using a heparin-treated syringe under the ether anesthesia at designated time. Then, the head skin was cut out, and a dental 30 G needle was inserted between the cervical vertebrae, and it was further inserted into the cavum subarachnoideale. After 50 to 100 μL cerebrospinal fluid had been collected by a 1 ml-syringe through a tube connected to dental 30 G needle, the brain was extracted. The blood sample was centrifuged (4° C., 6,000 r.p.m., 10 minutes) to obtain the plasma. 3-fold amount of ethanol containing an internal standard was added, and stirred. The brain sample was homogenized after addition of 2 ml water, an aliquot of the homogenate was taken and 3-fold amount of ethanol containing an internal standard was added, and stirred. The cerebrospinal fluid was stirred after adding 3-fold amount of ethanol containing an internal standard. These samples were allowed to stand at −20° C. for 20 minutes, and then centrifuged (4° C., 12,000 g, 10 minutes). The supernatant was analyzed by LC/MS/MS, and the concentration of the test compound in the plasma, brain, and cerebrospinal fluid were measured by the method using a relative calibration curve.

Data set [3] can be described thus: Pharmacokinetics test (plasma concentration by LC/MS/MS). In kind it is in vivo. The following applies: rat, male SD rats, overnight fasting, oral or intravenous administration. The method, then: A test compound was orally or intravenously administered to male SD rats (7–10 weeks old, 200–400 g) under the overnight fasting condition. About 100 μL of blood was collected from the tail vein by heparinized capillary at designated time. The blood was centrifuged (4° C., 6,000 r.p.m., 10 minutes) to obtain the plasma. 3-fold amount of ethanol containing an internal standard was added to plasma. The mixture was stirred, allowed to stand at −20° C. for 20 minutes, and then centrifuged (4° C., 10,000 r.p.m., 10 minutes). The supernatant was analyzed by LC/MS/MS, and the concentration of the test compound in the plasma was measured using a relative calibration curve.

With `C[C@@H]1NC(c2ccc(=O)n(C(F)F)c2)=NC1(c1ccc(F)cc1)c1ccc(C(F)(F)F)nc1` (single isomer, unassigned) [Example 1-7], the 50% inhibitory concentration (IC50) in data set [1] amounted to 2.7 nM. In addition, the “concentration in the brain” value in data set [2] is 2.48 nmol/g. Moreover, the concentration at 2 h in data set [2] (cerebrospinal fluid, read-out: concentration in the cerebrospinal fluid) was 150 nM. Further, the concentration at 2 h in data set [2] (plasma, read-out: concentration in the plasma) came out at 3170 nM. Besides, in data set [3], the bioavailability amounted to 94% and the half-life is 8.5 h.
For the compound `CCn1cc(C2=NC(c3ccc(F)cc3)(c3ccc(C(F)(F)F)nc3)[C@H](C)N2)ccc1=O` (single isomer, unassigned) [Example 1-8], the concentration for half-maximal inhibition (IC50) in data set [1] was determined as 2.1 nM.
`CCCn1cc(C2=NC(c3ccc(F)cc3)(c3ccc(C(F)(F)F)nc3)[C@H](C)N2)ccc1=O` (single isomer, unassigned) [Example 1-9]: the IC50 in data set [1] came to 1.5 nM.
Same read-out and setting: as for `CCn1cc(C2=NC(c3ccc(F)cc3)(c3ccc(C(F)(F)F)nc3)[C@H](C)N2)cc(Cl)c1=O` (single isomer, unassigned) [Example 1-11], the figure is 2.3 nM; as for `C[C@@H]1NC(c2ccc(=O)n(C(F)F)c2)=NC1(c1ccc(Cl)cc1)c1ccnc(F)c1` (single isomer, unassigned) [Example 1-21], 2.7 nM; as for `CCn1cc(C2=NC(c3ccc(Cl)cc3)(c3ccnc(F)c3)[C@H](C)N2)ccc1=O` (single isomer, unassigned) [Example 1-23], 2.8 nM.
On the same count and under the same terms, in the case of `CCn1cc(C2=NC(c3ccc(F)cc3)(c3ccc(C(F)(F)F)nc3)[C@H](C)N2)cc(F)c1=O` (single isomer, unassigned) [Example 1-29] it was 2.9 nM; in that of `C[C@@H]1NC(c2ccc(=O)n(C(F)F)c2)=NC1(c1ccc(F)cc1)c1ccc(C(F)F)nc1` (single isomer, unassigned) [Example 1-42], 2.8 nM.
Same read-out and setting: as for `CCn1cc(C2=NC(c3ccc(F)cc3)(c3ccc(C(F)F)nc3)[C@H](C)N2)cc(F)c1=O` (single isomer, unassigned) [Example 1-45], the figure is 2.8 nM; as for `CCn1cc(C2=N[C@@](c3ccc(F)cc3)(c3ccc(F)nc3)[C@H](C)N2)cc(F)c1=O` [Example 1-25, 1-ethyl-3-fluoro-5-[(4S,5S)-4-(4-fluorophenyl)-4-(6-fluoro-3-pyridyl)-5-methyl-2-imidazolin-2-yl]-2-pyridone], 2.9 nM.
With `CCc1cc(C2=N[C@@](c3ccc(F)cc3)(c3ccc(F)nc3)[C@H](C)N2)cn(C)c1=O` [Example 1-39, 3-ethyl-5-[(4S,5S)-4-(4-fluorophenyl)-4-(6-fluoro-3-pyridyl)-5-methyl-2-imidazolin-2-yl]-1-methyl-2-pyridone], in data set [1], the IC50 came out at 2.6 nM.
The same measure, in the same setting: as for `COn1cc(C2=N[C@](c3ccc(F)cc3)(c3ccc(C(F)(F)F)nc3)[C@H](C)N2)ccc1=O` [Example 1-53, 5-[(4R,5S)-4-(4-fluorophenyl)-5-methyl-4-(6-trifluoromethyl-3-pyridyl)-2-imidazolin-2-yl]-1-methoxy-2-pyridone], the figure is 2.5 nM.
Turning to `CCc1cc(C2=N[C@@](c3ccc(F)cc3)(c3ccc(F)nc3)[C@H](C)N2)cn(C(F)F)c1=O` [Example 1-70, 1-difluoromethyl-3-ethyl-5-[(4S,5S)-4-(4-fluorophenyl)-4-(6-fluoro-3-pyridyl)-5-methyl-2-imidazolin-2-yl]-2-pyridone], in data set [1], the IC50 worked out at 2.9 nM.

The term IC50 denotes the midpoint of a concentration-inhibition curve. Usually bioavailability stands for dose-corrected exposure relative to a reference, in per cent. High values mean good availability, low ones poor availability. By half-life is commonly meant how long it takes for the measured level to halve. A low value points to fast loss.
